In patent US12458599B2, “Bioactivatable devices and related methods” (CTI Vascular AG, priority 2020, dated 2025):
Read-outs that look alike come from different tables or passages of the source.

Key:
[1] = cited from earlier work
[2] = solubility of ATTM in solvents; type: physicochemical
From the text: Preparation of Exemplary Coating Formulations: (NH4)2MoS4 (“ATTM” or ammoniumtetrathiomolybdate) as a representative compound for a pharmaceutically active copper chelating agent can be dissolved in a suitable solvent including, without limitation dimethyl acetamide, dimethylsulfoxide or tetramethylurea to provide a desired saturation concentration. […] The concentrated ATTM solution can be mixed with a variety of suitable matrix polymers commonly known to one of ordinary skill in the art, including, without limitation PVDF-HVP, PET, PLGA, PLLA, PHA, polyurethanes, polyphosphazenes, silicones and equivalents, in a suitable volume ratio to form a readily available coating formulation with a defined polymer to ATTM weight ratio per ml coating formulation. The matrix polymer solvent can be chosen to be mutually compatible with the ATTM solvent in order to avoid potential phase separation. The obtained deep red to orange solution can be centrifuged, and the supernatant filtered through a 0.22 μm PTFE filter to remove any solid residue. The finally obtained ATTM concentration can be determined via UV-Vis spectroscopy.

[3] = tested on: venous endothelial cell proliferation; conditions: cited from earlier work
IL-1α = conditions: cited from earlier work
aqueous solubility = type: physicochemical
Procedure: Solubility: Information on the actual quantitative solubility of solid Molybdenum disulfide can be sparse, and the compound can be often quoted as being insoluble in water. […] Thus, upon prolonged contact between MoS2 coated surface with an aqueous medium, a saturation concentration of 0.125-1.25 μM MoO4^2− can reasonably be expected.

Row | Structure (SMILES) | aqueous solubility ([1]; reported) | solubility in acetone, acetonitrile, cyclohexanone, methylisobutylketone [2] | solubility in dimethylacetamide, tetramethylurea, dimethylsulfoxide, N-methylpyrrolidone, ethylendiamine, pyridine, methanol, ethanediol and water [2] | systemic concentration sufficient to achieve inhibition of venous endothelial cell proliferation [3] [µM] | concentration inhibiting the release of IL-1α (IL-1α) [nM] | saturation concentration of MoO4^2− (aqueous solubility; prolonged contact of MoS2 coated surface with aqueous medium, expected) [µM] | predicted maximum aqueous saturation concentration of the molybdate species (TM0) (aqueous solubility; stemming from MoS2) [µM] | aqueous solubility ([1]; aqueous environments) [µM]
1 | [NH4+].[NH4+].[SH-].[SH-].[S]=[Mo]=[S] [ATTM, Ammoniumtetrathiomolybdate; (NH4)2MoS4] | at least 7 mM | limited solubility | reasonable solubility | 5 | 250 | – | – | –
2 | [S]=[Mo]=[S] [MoS2, Molybdenum disulfide] | – | – | – | – | – | 0.125 to 1.25 | 1.25 | 0.125 to 1.25
